These results are taken from US7825146B2, “Sulfonamide derivative having isoxazole ring” (Shionogi & Co., Ltd., priority 2003, dated 2010).

What is called IC50 is the concentration at which inhibition is half-maximal.

For the test, the target named is T1, MMP-12 (Homo sapiens, UniProt P39900).
T1 construct: In regard to MMP-12, catalytic domain(^100Phe˜^263Gly) was amplified with RT-PCR; His-tag; enterokinase digestion-site; made in house
T1 sequence (P39900 100-263): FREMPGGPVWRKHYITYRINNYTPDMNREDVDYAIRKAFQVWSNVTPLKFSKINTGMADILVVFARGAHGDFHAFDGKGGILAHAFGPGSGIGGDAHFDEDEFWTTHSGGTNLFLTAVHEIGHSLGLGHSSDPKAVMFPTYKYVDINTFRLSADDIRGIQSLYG
Nature of the test: Assay for inhibitory activities on MMPs (fluorogenic MOCAc peptide substrate): MMP-12. The test is classed as biochemical. The following applies: catalytic domain 100Phe-263Gly. As for the experimental part:
In regard to MMP-12, catalytic domain(^100Phe˜^263Gly) was amplified with RT-PCR from Human Placenta Total RNA. This was cloned in Escherichia. coli expression vector pTrc99AHE inserted with His-tag sequence and enterokinase digestion-site, induced and expressed by IPTG (Isopropyl-β-D-thiogalactopyranoside) and expressed in a insoluble fraction. Isolation of MMP-12 from an insoluble fraction was carried out by dissolving in modifier (6M urea) by a usual method and purification with metal chelate chromatography (Ni Chelateing Sepharose). And then removing modifier (6M urea) with dialysis and refolding of the enzyme spontaneously gave activated MMP-12.
The enzymatic activity on MMPs was analyzed by the method described in “C. Graham Knight, Frances Willenbrock and Gillian Murphy: A novel coumarin-labelled peptide for sensitive continuous assays of the matrix metalloproteinases: FEBS LETT., 296, (1992), 263-266”. The substrate: MOCAc-Pro-Leu-Gly-Leu-A2Pr(DNP)-Ala-Arg-NH2 was purchased from Peptide Institute, Inc., Osaka, Japan. The measurement of the inhibitory activities (IC50) was carried out by the following four methods; • (A) Reaction with substrate, enzyme (MMPs) and inhibitor • (B) Reaction with substrate and inhibitor, without enzyme • (C) Reaction with substrate and enzyme (MMPs), without inhibitor • (D) Reaction with substrate only IC50 values were calculated by using the following formula and each fluorescence values of above four methods (A to D).
The value of inhibitory activity against MMP-2, MMP-8, MMP-9, MMP-12, and MMP-13 measured by above mentioned methods are shown in Table 36, 37, 38, 39, and 40 respectively.
`C[C@H](NS(=O)(=O)c1ccc(-c2cc(-c3ccc(OC(F)(F)F)cc3)no2)cc1)C(=O)O` [Example A-6] showed an IC50 of 0.000889 µM.
In turn, `CC(C)[C@@H](NS(=O)(=O)c1ccc(-c2cc(-c3ccc(C(F)(F)F)cc3)no2)cc1)C(=O)O` [Example A-20] showed an IC50 of 0.000723 µM. The IC50 values of the last two compounds are within 1.5-fold of each other.
Compound `CC(C)[C@H](NS(=O)(=O)c1ccc(-c2cc(-c3ccc(C(F)(F)F)cc3)no2)cc1)C(=O)O` [Example A-21] had an IC50 of 0.000608 µM.
`CC(C)[C@H](NS(=O)(=O)c1ccc(-c2cc(-c3ccc(Cl)cc3)no2)cc1)C(=O)O` [Example A-23] came in with an IC50 of 0.00086 µM.
Then `CC(C)[C@@H](NS(=O)(=O)c1ccc(-c2cc(-c3ccc(Br)cc3)no2)cc1)C(=O)O` [Example A-24], with 0.000806 µM; and `CC(C)[C@H](NS(=O)(=O)c1ccc(-c2cc(-c3ccc(Br)cc3)no2)cc1)C(=O)O` [Example A-25], with 0.000518 µM; and `COc1ccc(-c2cc(-c3ccc(S(=O)(=O)N[C@@H](C(=O)O)C(C)C)cc3)on2)cc1F` [Example A-38], with 0.000908 µM.
Take `COc1ccc(-c2cc(-c3ccc(S(=O)(=O)N[C@H](C(=O)O)C(C)C)cc3)on2)cc1F` [Example A-39]: the IC50 was 0.000708 µM.
`CC(C)[C@@H](NS(=O)(=O)c1ccc(-c2cc(-c3ccc(Cl)c(F)c3)no2)cc1)C(=O)O` [Example A-40] showed an IC50 of 0.000861 µM.
Then `CC(C)[C@H](NS(=O)(=O)c1ccc(-c2cc(-c3ccc(Cl)c(F)c3)no2)cc1)C(=O)O` [Example A-41], with 0.00047 µM; and `Cc1ccc(-c2cc(-c3ccc(S(=O)(=O)N[C@@H](CC(C)C)C(=O)O)cc3)on2)cc1` [Example A-61], with 0.00081 µM; and `CC(C)C[C@H](NS(=O)(=O)c1ccc(-c2cc(-c3ccc(C(F)(F)F)cc3)no2)cc1)C(=O)O` [Example A-63], with 0.000584 µM.
As to `CC(C)C[C@H](NS(=O)(=O)c1ccc(-c2cc(-c3ccc(Cl)cc3)no2)cc1)C(=O)O` [Example A-65], it took 0.000492 µM to reach half-maximal inhibition (IC50).
Under `CC(C)C[C@H](NS(=O)(=O)c1ccc(-c2cc(-c3ccc(Br)cc3)no2)cc1)C(=O)O` [Example A-66] stands 0.00043 µM; under `CC(C)C[C@H](NS(=O)(=O)c1ccc(-c2cc(-c3ccc(Cl)c(F)c3)no2)cc1)C(=O)O` [Example A-81], 0.000357 µM; under `CC(C)C[C@H](NS(=O)(=O)c1ccc(-c2cc(-c3ccc(F)c(F)c3)no2)cc1)C(=O)O` [Example A-84], 0.00069 µM.
For the compound `CCC(C)[C@H](NS(=O)(=O)c1ccc(-c2cc(-c3ccc(C(F)(F)F)cc3)no2)cc1)C(=O)O` (some centres unmarked) [Example A-102], the IC50 is 0.000592 µM.
Consider `CCC(C)[C@H](NS(=O)(=O)c1ccc(-c2cc(-c3ccc(Cl)c(F)c3)no2)cc1)C(=O)O` (some centres unmarked) [Example A-104], for which it took 0.000379 µM to reach half-maximal inhibition (IC50).
The compound `Cc1ccc(-c2cc(-c3ccc(S(=O)(=O)N[C@@H](C)C(=O)O)cc3)no2)cc1` [Example C-2] registered an IC50 of 0.000899 µM.
As for `CCc1ccc(-c2cc(-c3ccc(S(=O)(=O)N[C@@H](C)C(=O)O)cc3)no2)cc1` [Example C-3], half-maximal inhibition (IC50) required 0.000547 µM.
`Cc1ccc(-c2cc(-c3ccc(S(=O)(=O)N[C@@H](C(=O)O)C(C)C)cc3)no2)cc1` [Example C-8] yielded an IC50 of 0.000559 µM. This IC50 and that of the compound before are within 1.5-fold of each other.
Compound `Cc1ccc(-c2cc(-c3ccc(S(=O)(=O)N[C@H](C(=O)O)C(C)C)cc3)no2)cc1` [Example C-9] came in with an IC50 of 0.000409 µM.
The compound `CC(C)[C@H](NS(=O)(=O)c1ccc(-c2cc(-c3ccc(Cl)cc3)on2)cc1)C(=O)O` [Example C-21] registered an IC50 of 0.000336 µM. This IC50 and that of the compound before are within 1.5-fold of each other.
`CC(C)[C@H](NS(=O)(=O)c1ccc(-c2cc(-c3ccc(Br)cc3)on2)cc1)C(=O)O` [Example C-23]: the IC50 was found to be 0.000205 µM.
Regarding `CC(C)[C@H](NS(=O)(=O)c1ccc(-c2cc(-c3ccc(C(F)(F)F)cc3)on2)cc1)C(=O)O` [Example C-28], the IC50 is 0.000209 µM.
With `Cc1ccc(-c2cc(-c3ccc(S(=O)(=O)N[C@@H](C(=O)O)C(C)C)cc3)no2)cc1F` [Example C-38], the IC50 stood at 0.000245 µM.
Regarding `Cc1ccc(-c2cc(-c3ccc(S(=O)(=O)N[C@H](C(=O)O)C(C)C)cc3)no2)cc1F` [Example C-39], it took 0.000238 µM to reach half-maximal inhibition (IC50).
Under `CC(C)[C@@H](NS(=O)(=O)c1ccc(-c2cc(-c3ccc(Cl)c(Cl)c3)on2)cc1)C(=O)O` [Example C-40] stands 0.000575 µM; under `CC(C)[C@@H](NS(=O)(=O)c1ccc(-c2cc(-c3ccc(F)c(F)c3)on2)cc1)C(=O)O` [Example C-49], 0.000834 µM.
On to `CC(C)[C@H](NS(=O)(=O)c1ccc(-c2cc(-c3ccc(F)c(F)c3)on2)cc1)C(=O)O` [Example C-50], for which the IC50 was found to be 0.000754 µM.
With `Cc1ccc(-c2cc(-c3ccc(S(=O)(=O)N[C@@H](CC(C)C)C(=O)O)cc3)no2)cc1` [Example C-54], the IC50 came to 0.000343 µM.
As to `CCc1ccc(-c2cc(-c3ccc(S(=O)(=O)N[C@@H](CC(C)C)C(=O)O)cc3)no2)cc1` [Example C-56], the IC50 was 0.000289 µM.
`CCCc1ccc(-c2cc(-c3ccc(S(=O)(=O)N[C@@H](CC(C)C)C(=O)O)cc3)no2)cc1` [Example C-58] had an IC50 of 0.000216 µM. The IC50 values of the last two compounds are within 1.5-fold of each other.
The compound `CSc1ccc(-c2cc(-c3ccc(S(=O)(=O)N[C@@H](CC(C)C)C(=O)O)cc3)no2)cc1` [Example C-62] showed an IC50 of 0.00029 µM.
For `COc1ccc(-c2cc(-c3ccc(S(=O)(=O)N[C@@H](CC(C)C)C(=O)O)cc3)no2)cc1` [Example C-64], the IC50 was found to be 0.000432 µM.
The compound `CC(C)C[C@H](NS(=O)(=O)c1ccc(-c2cc(-c3ccc(Br)cc3)on2)cc1)C(=O)O` [Example C-66] came in with an IC50 of 0.000218 µM.
With `CC(C)C[C@H](NS(=O)(=O)c1ccc(-c2cc(-c3ccc(Cl)cc3)on2)cc1)C(=O)O` [Example C-68], the midpoint of inhibition, the IC50, lay at 0.000295 µM. The IC50 values of the last two compounds are within 1.5-fold of each other.
With `CC(C)C[C@H](NS(=O)(=O)c1ccc(-c2cc(-c3ccc(OC(F)(F)F)cc3)on2)cc1)C(=O)O` [Example C-71], the IC50 stood at 0.000203 µM.
`CC(C)C[C@H](NS(=O)(=O)c1ccc(-c2cc(-c3ccc(C(F)(F)F)cc3)on2)cc1)C(=O)O` [Example C-73] registered an IC50 of 0.000251 µM.
Consider `CCc1ccc(-c2cc(-c3ccc(S(=O)(=O)N[C@@H](CC(C)C)C(=O)O)cc3)no2)s1` [Example C-77], for which the IC50 stood at 0.000676 µM. Against the preceding compound, the IC50 is about 2.7-fold higher.
In turn, `CC(C)C[C@H](NS(=O)(=O)c1ccc(-c2cc(-c3ccc(Cl)c(F)c3)on2)cc1)C(=O)O` [Example C-82] displayed an IC50 of 0.000233 µM.
With `Cc1ccc(-c2cc(-c3ccc(S(=O)(=O)N[C@@H](CC(C)C)C(=O)O)cc3)no2)cc1F` [Example C-84], the IC50 was determined as 0.000245 µM.
Then `CCC(C)[C@H](NS(=O)(=O)c1ccc(-c2cc(-c3ccc(C)cc3)on2)cc1)C(=O)O` (some centres unmarked) [Example C-94], with 0.000256 µM; and `CCC(C)[C@H](NS(=O)(=O)c1ccc(-c2cc(-c3ccc(Br)cc3)on2)cc1)C(=O)O` (some centres unmarked) [Example C-103], with 0.000177 µM; and `CCC(C)[C@H](NS(=O)(=O)c1ccc(-c2cc(-c3ccc(C)c(F)c3)on2)cc1)C(=O)O` (some centres unmarked) [Example C-105], with 0.000174 µM.
As to `CCC(C)[C@H](NS(=O)(=O)c1ccc(-c2cc(-c3ccc(F)cc3)on2)cc1)C(=O)O` (some centres unmarked) [Example C-106], the IC50 is 0.000781 µM.
For `CCC(C)[C@H](NS(=O)(=O)c1ccc(-c2cc(-c3ccc(Cl)cc3)on2)cc1)C(=O)O` (some centres unmarked) [Example C-107], the IC50 stood at 0.000257 µM. This IC50 lies about 3-fold lower than the previous one.
Compound `CCC(C)[C@H](NS(=O)(=O)c1ccc(-c2cc(-c3ccc(F)c(F)c3)on2)cc1)C(=O)O` (some centres unmarked) [Example C-108] gave an IC50 of 0.000525 µM.
Under `Cc1ccc(-c2cc(-c3ccc(S(=O)(=O)N[C@@H](C(=O)O)C(C)(C)C)cc3)no2)cc1` [Example C-109] stands 0.000951 µM; under `O=C(O)C[C@@H](NS(=O)(=O)c1ccc(-c2cc(-c3ccc(Cl)c(F)c3)on2)cc1)C(=O)O` [Example C-117], 0.000967 µM; under `COc1ccc(-c2cc(-c3ccc(S(=O)(=O)N[C@H](CC(=O)O)C(=O)O)cc3)no2)cc1F` [Example C-118], 0.000904 µM.
Consider `Cc1ccc(-c2cc(-c3ccc(S(=O)(=O)N[C@H](Cc4ccccc4)C(=O)O)cc3)no2)cc1` [Example C-122], for which the IC50 was 0.000877 µM. This IC50 and that of the compound before are within 1.5-fold of each other.
`CCc1ccc(-c2cc(-c3ccc(S(=O)(=O)N[C@H](Cc4ccccc4)C(=O)O)cc3)no2)cc1` [Example C-123] showed an IC50 of 0.00076 µM. This IC50 and that of the compound before are within 1.5-fold of each other.
